# Test results as given in patent publication US10413505B1, “Pharmaceutical compositions and methods of using the same” (priority 2017, dated 2019).
# Experiment: Example 3 plasma pharmacokinetics, normal hepatic function vs hepatic impairment
# Details: for AUC(0-t) / AUC(0-inf) / Cmax / Tmax / half-life: both, human, 160 mg
# [1] = hepatic impairment, single intranasal 160 mg cocaine HCl, plasma
# [2] = normal hepatic function, single intranasal 160 mg cocaine HCl, plasma
smiles,measurement,setting,value
"COC(=O)[C@H]1[C@@H](OC(=O)c2ccccc2)C[C@@H]2CC[C@H]1N2C [Cocaine, cocaine, reference compound]","geometric mean Cmax, percent higher than normal","all hepatically impaired individuals, outlier included",27%
same,AUC(0-t),"plasma, inhaled or intranasal, AUC0→t (Geometric mean), hepatic impairment, single intranasal 160 mg cocaine HCl",189 ng·h/mL
same,AUC(0-t),"plasma, inhaled or intranasal, AUC0→t (Geometric mean), normal hepatic function, single intranasal 160 mg cocaine HCl",79.2 ng·h/mL
same,AUC(0-t),"plasma, inhaled or intranasal, AUC0→t (Mean), hepatic impairment, single intranasal 160 mg cocaine HCl",223 ng·h/mL
same,AUC(0-t),"plasma, inhaled or intranasal, AUC0→t (Mean), normal hepatic function, single intranasal 160 mg cocaine HCl",92.8 ng·h/mL
same,AUC(0-t),"plasma, inhaled or intranasal, AUC0→t (Median), hepatic impairment, single intranasal 160 mg cocaine HCl",176 ng·h/mL
same,AUC(0-t),"plasma, inhaled or intranasal, AUC0→t (Median), normal hepatic function, single intranasal 160 mg cocaine HCl",82.4 ng·h/mL
same,AUC(0-inf),"plasma, inhaled or intranasal, AUC0→∞ (Geometric mean), hepatic impairment, single intranasal 160 mg cocaine HCl",192 ng·h/mL
same,AUC(0-inf),"plasma, inhaled or intranasal, AUC0→∞ (Geometric mean), normal hepatic function, single intranasal 160 mg cocaine HCl",82.4 ng·h/mL
same,AUC(0-inf),"plasma, inhaled or intranasal, AUC0→∞ (Mean), hepatic impairment, single intranasal 160 mg cocaine HCl",227 ng·h/mL
same,AUC(0-inf),"plasma, inhaled or intranasal, AUC0→∞ (Mean), normal hepatic function, single intranasal 160 mg cocaine HCl",95.3 ng·h/mL
same,AUC(0-inf),"plasma, inhaled or intranasal, AUC0→∞ (Median), hepatic impairment, single intranasal 160 mg cocaine HCl",177 ng·h/mL
same,AUC(0-inf),"plasma, inhaled or intranasal, AUC0→∞ (Median), normal hepatic function, single intranasal 160 mg cocaine HCl",83.3 ng·h/mL
same,Cmax,"plasma, inhaled or intranasal, Cmax (Geometric mean), hepatic impairment, single intranasal 160 mg cocaine HCl",41.2 ng/mL
same,Cmax,"plasma, inhaled or intranasal, Cmax (Geometric mean), normal hepatic function, single intranasal 160 mg cocaine HCl",44.2 ng/mL
same,Cmax,"plasma, inhaled or intranasal, Cmax (Mean), hepatic impairment, single intranasal 160 mg cocaine HCl",50.7 ng/mL
same,Cmax,"plasma, inhaled or intranasal, Cmax (Mean), normal hepatic function, single intranasal 160 mg cocaine HCl",50.6 ng/mL
same,Cmax,"plasma, inhaled or intranasal, Cmax (Median), hepatic impairment, single intranasal 160 mg cocaine HCl",42.6 ng/mL
same,Cmax,"plasma, inhaled or intranasal, Cmax (Median), normal hepatic function, single intranasal 160 mg cocaine HCl",53.6 ng/mL
same,Tmax,"plasma, inhaled or intranasal, Tmax (Geometric mean), hepatic impairment, single intranasal 160 mg cocaine HCl",0.828 h
same,Tmax,"plasma, inhaled or intranasal, Tmax (Geometric mean), normal hepatic function, single intranasal 160 mg cocaine HCl",0.422 h
same,Tmax,"plasma, inhaled or intranasal, Tmax (Mean), hepatic impairment, single intranasal 160 mg cocaine HCl",1.09 h
same,Tmax,"plasma, inhaled or intranasal, Tmax (Mean), normal hepatic function, single intranasal 160 mg cocaine HCl",0.431 h
same,Tmax,"plasma, inhaled or intranasal, Tmax (Median), hepatic impairment, single intranasal 160 mg cocaine HCl",0.75 h
same,Tmax,"plasma, inhaled or intranasal, Tmax (Median), normal hepatic function, single intranasal 160 mg cocaine HCl",0.5 h
same,half-life,"plasma, inhaled or intranasal, t1/2 (Geometric mean), hepatic impairment, single intranasal 160 mg cocaine HCl",4.99 h
same,half-life,"plasma, inhaled or intranasal, t1/2 (Geometric mean), normal hepatic function, single intranasal 160 mg cocaine HCl",6.62 h
same,half-life,"plasma, inhaled or intranasal, t1/2 (Mean), hepatic impairment, single intranasal 160 mg cocaine HCl",5.42 h
same,half-life,"plasma, inhaled or intranasal, t1/2 (Mean), normal hepatic function, single intranasal 160 mg cocaine HCl",8.11 h
same,half-life,"plasma, inhaled or intranasal, t1/2 (Median), hepatic impairment, single intranasal 160 mg cocaine HCl",5.63 h
same,half-life,"plasma, inhaled or intranasal, t1/2 (Median), normal hepatic function, single intranasal 160 mg cocaine HCl",6.93 h
same,AUC(0-inf),"plasma, other: intranasal (drug-soaked pledgets in the nasal cavity), AUCinf, range observed, hepatically impaired patients",88 to 366 ng·h/mL
same,AUC(0-t),"plasma, other: intranasal (drug-soaked pledgets in the nasal cavity), AUClast (Geometric Least Squares Mean, ANOVA), Grade B hepatic impairment",225 ng·h/mL
same,AUC(0-t),"plasma, other: intranasal (drug-soaked pledgets in the nasal cavity), AUClast (Geometric Least Squares Mean, ANOVA), Grade C hepatic impairment",142 ng·h/mL
same,AUC(0-t),"plasma, other: intranasal (drug-soaked pledgets in the nasal cavity), AUClast (Geometric Least Squares Mean, ANOVA), Normal hepatic function",79.2 ng·h/mL
same,Cmax,"plasma, other: intranasal (drug-soaked pledgets in the nasal cavity), Cmax (Geometric Least Squares Mean, ANOVA), Grade B hepatic impairment, excludes one subject with anomalous concentration at 7 minutes",46.4 ng/mL
same,Cmax,"plasma, other: intranasal (drug-soaked pledgets in the nasal cavity), Cmax (Geometric Least Squares Mean, ANOVA), Grade C hepatic impairment",30.1 ng/mL
same,Cmax,"plasma, other: intranasal (drug-soaked pledgets in the nasal cavity), Cmax (Geometric Least Squares Mean, ANOVA), Normal hepatic function",44.2 ng/mL
same,Cmax,"plasma, other: intranasal (drug-soaked pledgets in the nasal cavity), Cmax, range observed, hepatically impaired patients",16.2 to 85.2 ng/mL
same,Tmax,"plasma, other: intranasal (drug-soaked pledgets in the nasal cavity), Tmax (approximate), normal hepatic function, plasma",~0.5 h
same,Tmax,"plasma, other: intranasal (drug-soaked pledgets in the nasal cavity), Tmax, range observed, hepatically impaired patients",0.306 to 1.87 h
same,"plasma exposure after Tmax, times higher than normal hepatic function",hepatic impairment group,about 2.5 times
same,AUC0→t (Max),[1],523 ng·h/mL
same,AUC0→t (Min),[1],89.5 ng·h/mL
same,AUC0→∞ (Max),[1],528 ng·h/mL
same,AUC0→∞ (Min),[1],90.9 ng·h/mL
same,Clast (Geometric mean),[1],0.270 ng/mL
same,Clast (Max),[1],1.73 ng/mL
same,Clast (Mean),[1],0.393 ng/mL
same,Clast (Median),[1],0.211 ng/mL
same,Clast (Min),[1],0.115 ng/mL
same,Cmax (Max),[1],119 ng/mL
same,Cmax (Min),[1],17.1 ng/mL
same,Tlast (Geometric mean),[1],31.6 h
same,Tlast (Max),[1],32.0 h
same,Tlast (Mean),[1],31.6 h
same,Tlast (Median),[1],32.0 h
same,Tlast (Min),[1],1680 min
same,Tmax (Max),[1],3.00 h
same,Tmax (Min),[1],7.02 min
same,t1/2 (Geometric mean),[1],4.94 h
same,t1/2 (Max),[1],9.86 h
same,t1/2 (Min),[1],87.6 min
same,AUC0→t (Max),[2],235 ng·h/mL
same,AUC0→t (Min),[2],20.0 ng·h/mL
same,AUC0→∞ (Max),[2],237 ng·h/mL
same,AUC0→∞ (Min),[2],21.7 ng·h/mL
same,Clast (Geometric mean),[2],0.188 ng/mL
same,Clast (Max),[2],0.405 ng/mL
same,Clast (Mean),[2],0.210 ng/mL
same,Clast (Median),[2],0.160 ng/mL
same,Clast (Min),[2],0.102 ng/mL
same,Cmax (Max),[2],75.2 ng/mL
same,Cmax (Min),[2],7.64 ng/mL
same,Tlast (Geometric mean),[2],24.7 h
same,Tlast (Max),[2],32.0 h
same,Tlast (Mean),[2],26.0 h
same,Tlast (Median),[2],28.0 h
same,Tlast (Min),[2],720 min
same,t1/2 (Max),[2],22.5 h
same,t1/2 (Min),[2],110 min
